From the OligoGym collection come the findings set out here.

The series has as its target APP. Put plainly: mouse, dose not given. The settings on record: ASO.

HELM strings list units from the 5' end as sugar, base in round brackets, then linkage (d deoxyribose, r ribose, m 2'-O-methyl, p phosphodiester). Strings are as the collection lists them; they lack the last nucleoside at the 3' end of the tested compound. [moe] = 2'-O-(2-methoxyethyl) (MOE); [sp] = phosphorothioate linkage; [m5C] = 5-methylcytosine

Substance “RNA1{[moe](G)[sp].[moe]([m5C])p.[moe](A)p.[moe](A)p.[moe](A)[sp].d([m5C])[sp].d([m5C])[sp].d(A)[sp].d([m5C])[sp].d(T)[sp].d(T)[sp].d([m5C])[sp].d(T)[sp].d(G)[sp].d(T)[sp].[moe](A)p.[moe](G)p.[moe]([m5C])[sp].[moe](T)}$$$$ (last 3' nucleoside missing)” came in with a 3 h FOB score of 0 score 0-7.

For “RNA1{[moe](G)[sp].[moe]([m5C])p.[moe](A)p.[moe](A)p.[moe](G)[sp].d(A)[sp].d([m5C])[sp].d(T)[sp].d(T)[sp].d(T)[sp].d(T)[sp].d([m5C])[sp].d(T)[sp].d(T)[sp].d(T)[sp].[moe](G)p.[moe]([m5C])p.[moe](T)[sp].[moe]([m5C])}$$$$ (last 3' nucleoside missing)”, the 3 h FOB score amounted to 0 score 0-7.

Regarding “RNA1{[moe](G)[sp].[moe]([m5C])p.[moe](A)p.[moe](A)p.[moe]([m5C])[sp].d(A)[sp].d(G)[sp].d(A)[sp].d(T)[sp].d([m5C])[sp].d(T)[sp].d([m5C])[sp].d(T)[sp].d(T)[sp].d(A)[sp].[moe](T)p.[moe](T)p.[moe]([m5C])[sp].[moe](T)}$$$$ (last 3' nucleoside missing)”, the 3 h FOB score is 0 score 0-7.

“RNA1{[moe](G)[sp].[moe]([m5C])p.[moe](A)p.[moe](G)p.[moe](A)[sp].d(A)[sp].d(T)[sp].d(A)[sp].d([m5C])[sp].d([m5C])[sp].d(A)[sp].d(A)[sp].d(G)[sp].d(T)[sp].d(T)[sp].[moe](A)p.[moe](G)p.[moe](T)[sp].[moe](A)}$$$$ (last 3' nucleoside missing)” came in with a 3 h FOB score of 0.25 score 0-7.

For “RNA1{[moe](G)[sp].[moe]([m5C])p.[moe](A)p.[moe](G)p.[moe](A)[sp].d(A)[sp].d(T)[sp].d([m5C])[sp].d([m5C])[sp].d(A)[sp].d([m5C])[sp].d(A)[sp].d(T)[sp].d(T)[sp].d(G)[sp].[moe](T)p.[moe]([m5C])p.[moe](A)[sp].[moe]([m5C])}$$$$ (last 3' nucleoside missing)”, the 3 h FOB score was found to be 1.5 score 0-7.

For the substance “RNA1{[moe](G)[sp].[moe]([m5C])p.[moe](A)p.[moe](G)p.[moe](A)[sp].d(T)[sp].d([m5C])[sp].d(A)[sp].d(T)[sp].d(A)[sp].d(T)[sp].d(A)[sp].d([m5C])[sp].d(T)[sp].d(A)[sp].[moe](T)p.[moe](A)p.[moe]([m5C])[sp].[moe](A)}$$$$ (last 3' nucleoside missing)”, the 3 h FOB score turned out to be 0 score 0-7.

Consider “RNA1{[moe](G)[sp].[moe]([m5C])p.[moe](A)p.[moe](G)p.[moe](T)[sp].d([m5C])[sp].d(A)[sp].d(A)[sp].d(T)[sp].d([m5C])[sp].d(A)[sp].d(A)[sp].d([m5C])[sp].d(T)[sp].d([m5C])[sp].[moe]([m5C])p.[moe](A)p.[moe](A)[sp].[moe]([m5C])}$$$$ (last 3' nucleoside missing)”, for which the 3 h FOB score was determined as 0 score 0-7.

“RNA1{[moe](G)[sp].[moe]([m5C])p.[moe](A)p.[moe](G)p.[moe]([m5C])[sp].d(A)[sp].d(G)[sp].d(G)[sp].d(T)[sp].d(T)[sp].d(T)[sp].d([m5C])[sp].d([m5C])[sp].d(A)[sp].d(T)[sp].[moe](A)p.[moe](A)p.[moe](A)[sp].[moe]([m5C])}$$$$ (last 3' nucleoside missing)” yielded a 3 h FOB score of 0 score 0-7.

In turn, “RNA1{[moe](G)[sp].[moe]([m5C])p.[moe](A)p.[moe](T)p.[moe](G)[sp].d(T)[sp].d(T)[sp].d([m5C])[sp].d(A)[sp].d(T)[sp].d(T)[sp].d([m5C])[sp].d(T)[sp].d([m5C])[sp].d(A)[sp].[moe](T)p.[moe]([m5C])p.[moe]([m5C])[sp].[moe]([m5C])}$$$$ (last 3' nucleoside missing)” yielded a 3 h FOB score of 0 score 0-7.

As for “RNA1{[moe](G)[sp].[moe]([m5C])p.[moe](A)p.[moe](T)p.[moe](G)[sp].d([m5C])[sp].d([m5C])[sp].d(T)[sp].d(T)[sp].d([m5C])[sp].d([m5C])[sp].d(T)[sp].d([m5C])[sp].d(A)[sp].d(T)[sp].[moe]([m5C])p.[moe]([m5C])p.[moe]([m5C])[sp].[moe]([m5C])}$$$$ (last 3' nucleoside missing)”, the 3 h FOB score was 0 score 0-7.

The substance “RNA1{[moe](G)[sp].[moe]([m5C])p.[moe](A)p.[moe](T)p.[moe](T)[sp].d([m5C])[sp].d(A)[sp].d([m5C])[sp].d(A)[sp].d(A)[sp].d([m5C])[sp].d(A)[sp].d([m5C])[sp].d(A)[sp].d([m5C])[sp].[moe](A)p.[moe](T)p.[moe]([m5C])[sp].[moe]([m5C])}$$$$ (last 3' nucleoside missing)” gave a 3 h FOB score of 0.67 score 0-7.

Turning to “RNA1{[moe](G)[sp].[moe]([m5C])p.[moe](A)p.[moe](T)p.[moe](T)[sp].d([m5C])[sp].d(T)[sp].d([m5C])[sp].d(T)[sp].d(T)[sp].d(A)[sp].d(T)[sp].d(A)[sp].d(T)[sp].d(T)[sp].[moe]([m5C])p.[moe]([m5C])p.[moe](T)[sp].[moe](T)}$$$$ (last 3' nucleoside missing)”, the 3 h FOB score was determined as 0 score 0-7.

“RNA1{[moe](G)[sp].[moe]([m5C])p.[moe](A)p.[moe](T)p.[moe](T)p.[moe]([m5C])[sp].d(T)[sp].d([m5C])[sp].d(T)[sp].d(T)[sp].d(A)[sp].d(T)[sp].d(A)[sp].d(T)[sp].d(T)[sp].d([m5C])[sp].[moe]([m5C])p.[moe](T)[sp].[moe](T)}$$$$ (last 3' nucleoside missing)” displayed a 3 h FOB score of 1.25 score 0-7.

In turn, “RNA1{[moe](G)[sp].[moe]([m5C])p.[moe](A)p.[moe](T)p.[moe]([m5C])[sp].d(A)[sp].d(G)[sp].d(G)[sp].d([m5C])[sp].d(T)[sp].d(A)[sp].d(A)[sp].d([m5C])[sp].d(A)[sp].d(A)[sp].[moe](G)p.[moe](T)p.[moe](T)[sp].[moe]([m5C])}$$$$ (last 3' nucleoside missing)” came in with a 3 h FOB score of 4 score 0-7.

Regarding “RNA1{[moe](G)[sp].[moe]([m5C])p.[moe](A)p.[moe](T)p.[moe]([m5C])[sp].d(A)[sp].d([m5C])[sp].d(A)[sp].d(A)[sp].d(T)[sp].d(T)[sp].d([m5C])[sp].d(T)[sp].d(T)[sp].d([m5C])[sp].[moe](A)p.[moe](T)p.[moe](T)[sp].[moe](G)}$$$$ (last 3' nucleoside missing)”, the 3 h FOB score is 0 score 0-7.

“RNA1{[moe](G)[sp].[moe]([m5C])p.[moe](A)p.[moe](T)p.[moe]([m5C])[sp].d(A)[sp].d([m5C])[sp].d(T)[sp].d(T)[sp].d(A)[sp].d([m5C])[sp].d(A)[sp].d(A)[sp].d(A)[sp].d([m5C])[sp].[moe](T)p.[moe]([m5C])p.[moe](A)[sp].[moe]([m5C])}$$$$ (last 3' nucleoside missing)” yielded a 3 h FOB score of 0.5 score 0-7.

“RNA1{[moe](G)[sp].[moe]([m5C])p.[moe](A)p.[moe](T)p.[moe]([m5C])[sp].d(T)[sp].d(T)[sp].d(T)[sp].d(T)[sp].d(A)[sp].d([m5C])[sp].d(T)[sp].d(A)[sp].d(T)[sp].d([m5C])[sp].[moe](T)p.[moe](G)p.[moe]([m5C])[sp].[moe]([m5C])}$$$$ (last 3' nucleoside missing)” displayed a 3 h FOB score of 0 score 0-7.
